Patent US20210267989A1, “Novel Compounds for the Treatment, Alleviation or Prevention of Disorders Associated with Tau Aggregates” (AC Immune SA, priority 2018, published 2021)

How the values were obtained:
[1] = target: T1, recombinant full-length (fl)Tau aggregates (longest isoform of human Tau, 2N4R; 441 amino acids) (Homo sapiens, UniProt P10636); assay: Full-length Tau (flTau) disaggregation assay by Thioflavin T (ThT); type: biochemical; conditions: ThT fluorescence; 2 μM flTau aggregates, 30 minutes at RT
T1 construct: 35 μM of recombinant full-length (fl)Tau in PBS were aggregated for 24 hours; made in house; host or cells: bacteria
Protocol: Full-Length Tau (flTau) Disaggregation Assay by Thioflavin T (ThT)
The longest isoform of human Tau (2N4R; 441 amino acids) was expressed in bacteria and purified. For the Tau disaggregation assay by ThT, 35 μM of recombinant full-length (fl)Tau in PBS were aggregated for 24 hours at 37° C. in presence of 50 μM of heparin (Sigma-Aldrich) and 10 mM of DTT (Sigma-Aldrich) under shaking at 750 RPM. Compounds were dissolved in anhydrous dimethyl sulfoxide (DMSO, Sigma-Aldrich) to reach a concentration of 10 mM. flTau aggregates and serial dilutions of compounds were mixed together in PBS (volume 50 μL) to a final concentration of 2 μM of flTau aggregates and from 160 to 0.04 μM of compounds. The mixture was incubated for 30 minutes at room temperature (RT), then 40 μL of this mixture were transferred into a black 384-well plate assay (Perkin-Elmer) and mixed with 10 μL of 100 μM ThT in 250 mM glycine (both from Sigma-Aldrich) in PBS. Fluorescence (relative fluorescence units; RFU) was measured in monoplicate or duplicate on a Tecan reader (excitation: 440 nm; emission: 485 nm). Percentage of flTau disaggregation was then calculated and the half maximal effective concentration (EC50) was determined using GraphPad Prism version 5 (GraphPad Software) assuming a one-binding site fitting model.

[2] = target: T2, Tau K18 fragment aggregates (amino acids 244 to 372 of human Tau441) (Homo sapiens, UniProt P10636); assay: Tau K18 disaggregation assay by ThT; type: biochemical; conditions: ThT fluorescence; 2 μM K18 aggregates, 30 minutes at RT
T2 construct: encompassing amino acids 244 to 372 of the longest isoform (2N4R) of human Tau441; host or cells: bacteria
Protocol: Tau K18 Disaggregation Assay by ThT
The Tau K18 fragment, encompassing amino acids 244 to 372 of the longest isoform (2N4R) of human Tau441, was expressed in bacteria and purified or bought from SignalChem. For the K18 disaggregation assay by ThT, 35 μM of recombinant K18 in PBS were aggregated for 24 hours at 37° C. in presence of 50 μM of heparin (Sigma-Aldrich) and 10 mM of DTT (Sigma-Aldrich) under shaking at 750 RPM. Compounds were dissolved in anhydrous dimethyl sulfoxide (DMSO, Sigma-Aldrich) to reach a concentration of 10 mM. K18 aggregates and serial dilutions of compounds were mixed together in PBS (volume 50 μL) to a final concentration of 2 μM of K18 aggregates and from 160 to 0.04 μM of compounds. The mixture was incubated for 30 minutes at room temperature (RT), then 40 μL of this mixture were transferred into a black 384-well plate assay (Perkin-Elmer) and mixed with 10 μL of 100 μM ThT in 250 mM glycine (both from Sigma-Aldrich) in PBS. Fluorescence (relative fluorescence units; RFU) was measured in monoplicate or duplicate on a Tecan reader (excitation: 440 nm; emission: 485 nm). Percentage of K18 disaggregation was then calculated and half maximal effective concentration (E050) was determined using GraphPad Prism version 5 (GraphPad Software) assuming a one-binding site fitting model.

T2 sequence (P10636 561-689): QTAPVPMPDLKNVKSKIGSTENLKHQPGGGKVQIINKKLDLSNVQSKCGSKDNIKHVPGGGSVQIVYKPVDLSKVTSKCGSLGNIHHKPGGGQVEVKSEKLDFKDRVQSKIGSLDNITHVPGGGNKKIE
T1 sequence (P10636 1-441 isoform P10636-8): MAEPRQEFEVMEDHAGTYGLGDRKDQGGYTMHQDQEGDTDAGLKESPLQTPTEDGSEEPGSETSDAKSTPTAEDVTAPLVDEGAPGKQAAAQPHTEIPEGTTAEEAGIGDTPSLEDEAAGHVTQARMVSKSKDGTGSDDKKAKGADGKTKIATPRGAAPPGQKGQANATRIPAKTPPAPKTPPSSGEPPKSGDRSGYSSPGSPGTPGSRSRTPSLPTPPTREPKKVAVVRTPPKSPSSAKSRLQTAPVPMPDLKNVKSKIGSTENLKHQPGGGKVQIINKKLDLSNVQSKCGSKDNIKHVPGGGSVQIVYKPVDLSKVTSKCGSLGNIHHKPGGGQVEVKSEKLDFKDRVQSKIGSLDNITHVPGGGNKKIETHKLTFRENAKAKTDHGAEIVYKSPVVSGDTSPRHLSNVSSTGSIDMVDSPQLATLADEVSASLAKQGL

Compound | EC50 [1] [µM] | EC50 [2] [µM]
CN(C)c1nc2ccc(N3CCc4c([nH]c5ccc(F)cc45)C3)cc2s1 [Example 26] | – | < 10
COc1ccc2[nH]c3c(c2c1)CCN(c1ccc2sc(N(C)C)nc2c1)C3 [Example 34] | – | < 10
COc1ccc2[nH]c3c(c2c1)CCN(c1ccc2nc(N(C)C)sc2c1)C3 [Example 35] | – | < 10
COc1ccc2[nH]c3c(c2c1)CCN(c1ccc2nc(N(C)C)oc2c1)C3 [Example 36] | – | < 10
c1ccc2c3c([nH]c2c1)CN(c1ccc2sc(N4CCOCC4)nc2c1)CC3 [Example 37] | – | 10 to 25
Fc1ccc2[nH]c3c(c2c1)CCN(c1ccc(N2CCOCC2)nc1)C3 [Example 40] | – | < 10
Fc1ccc2[nH]c3c(c2c1)CCN(c1ccc(N2CCOCC2)cn1)C3 [Example 41] | – | < 10
CN(C)c1nc2cc(N3CCc4c([nH]c5ccc(F)cc45)C3)ccc2s1 [Example 42] | – | < 10
Fc1ccc2[nH]c3c(c2c1)CCN(c1cnc(N2CCOCC2)c(F)c1)C3 [Example 48] | – | < 10
Fc1ccc2[nH]c3c(c2c1)CCN(c1cc2sc(N4CCOCC4)nc2cn1)C3 [Example 49] | – | < 10
Fc1ccc2[nH]c3c(c2c1)CCN(c1cncc(N2CCOCC2)c1)C3 [Example 50] | – | 10 to 25
Fc1ccc2c3c([nH]c2c1)CN(c1cnc(N2CCOCC2)c(F)c1)CC3 [Example 51] | – | 10 to 25
Fc1ccc2c3c([nH]c2c1)CN(c1ccc(N2CCOCC2)c(F)c1)CC3 [Example 52] | – | < 10
Fc1ccc2[nH]c3c(c2c1)CCN(c1cnc2nc(N4CCOCC4)sc2c1)C3 [Example 53] | – | < 10
Fc1ccc2[nH]c3c(c2c1)CCN(c1ccc2nc(N4CCOCC4)sc2n1)C3 [Example 54] | – | < 10
Fc1ccc2[nH]c3c(c2c1)CCN(c1ccc(N2CCOCC2)cc1)C3 [Example 55] | – | < 10
Fc1ccc2[nH]c3c(c2c1)CCN(c1ccc(N2CCOCC2)cc1F)C3 [Example 56] | – | < 10
Fc1ccc2c3c([nH]c2c1)CN(c1ccc(N2CCOCC2)cc1)CC3 [Example 57] | – | < 10
c1ccc2c3c([nH]c2c1)CN(c1ccc(N2CCOCC2)nn1)CC3 [Example 68] | – | < 10
c1ccc2c3c([nH]c2c1)CN(c1ccc(N2C4COCC2C4)nc1)CC3 [Example 70] | – | < 10
C[C@@H]1CN(c2ccc(N3CCc4c([nH]c5ccccc45)C3)cn2)C[C@H](C)O1 [Example 76] | – | < 10
c1ccc2c3c([nH]c2c1)CN(c1ccc(N2C[C@@H]4C[C@H]2CO4)nc1)CC3 [Example 86] | – | < 10
Fc1cccc2[nH]c3c(c12)CCN(c1ccc(N2CCOCC2)nc1)C3 [Example 87] | – | < 10
Fc1cccc2[nH]c3c(c12)CCN(c1ccc(N2CCOCC2)cn1)C3 [Example 88] | – | < 10
Fc1cccc2c3c([nH]c12)CN(c1ccc(N2CCOCC2)nc1)CC3 [Example 92] | – | < 10
N#Cc1ccc(N2CCc3c([nH]c4ccccc34)C2)cn1 [Example 113] | – | < 10
COC1CCN(c2ccc(N3CCc4c([nH]c5ccccc45)C3)nn2)CC1 [Example 117] | – | < 10
C[C@H]1CN(c2ccc(N3CCc4c([nH]c5ccccc45)C3)nn2)CCO1 [Example 118] | – | < 10
C[C@@H]1CN(c2ccc(N3CCc4c([nH]c5ccccc45)C3)nn2)CCO1 [Example 119] | – | < 10
C[C@@H]1CN(c2ccc(N3CCc4c([nH]c5ccccc45)C3)nn2)C[C@H](C)O1 [Example 120] | – | < 10

The next lines start with the values.

EC50 [1] [µM] | EC50 [2] [µM] | Compound
< 10 | – | Cn1c2c(c3ccccc31)CCN(c1ccc3nc(N4CCOCC4)sc3c1)C2 [Example 1]
< 10 | – | CN(C)c1nc2ccc(N3CCc4c(n(C)c5ccccc45)C3)cc2s1 [Example 2]
– | < 10 | COc1ccc2c(c1)c1c(n2C)CN(c2ccc3nc(N4CCOCC4)oc3c2)CC1 [Example 20]
– | < 10 | Fc1ccc2[nH]c3c(c2c1)CCN(c1ccc2sc(N4CCOCC4)nc2c1)C3 [Example 22]
– | < 10 | Fc1ccc2[nH]c3c(c2c1)CCN(c1ccc2nc(N4CCOCC4)sc2c1)C3 [Example 23]
– | < 10 | Fc1ccc2[nH]c3c(c2c1)CCN(c1ccc2nc(N4CCOCC4)oc2c1)C3 [Example 24]
– | < 10 | Fc1ccc2[nH]c3c(c2c1)CCN(c1ccc2oc(N4CCOCC4)nc2c1)C3 [Example 25]
– | < 10 | CN(C)c1nc2ccc(N3CCc4c([nH]c5ccc(F)cc45)C3)cc2o1 [Example 27]
– | < 10 | CN(C)c1nc2cc(N3CCc4c([nH]c5ccc(F)cc45)C3)ccc2o1 [Example 28]
– | < 10 | CN(C)c1nc2ccc(N3CCc4c(n(C)c5ccc(F)cc45)C3)cc2s1 [Example 29]
– | < 10 | COc1ccc2[nH]c3c(c2c1)CCN(c1ccc2sc(N4CCOCC4)nc2c1)C3 [Example 30]
– | < 10 | COc1ccc2[nH]c3c(c2c1)CCN(c1ccc2nc(N4CCOCC4)sc2c1)C3 [Example 31]
– | < 10 | COc1ccc2[nH]c3c(c2c1)CCN(c1ccc2nc(N4CCOCC4)oc2c1)C3 [Example 32]
– | 10 to 25 | COc1ccc2[nH]c3c(c2c1)CCN(c1ccc2oc(N4CCOCC4)nc2c1)C3 [Example 33]
– | < 10 | COc1ccc2[nH]c3c(c2c1)CCN(c1ccc2oc(N(C)C)nc2c1)C3 [Example 39]
– | < 10 | Fc1cc(N2CCc3c([nH]c4ccccc34)C2)ccc1N1CCOCC1 [Example 58]
– | < 10 | c1ccc2c3c([nH]c2c1)CN(c1ccc(N2CCOCC2)cc1)CC3 [Example 59]
– | 10 to 25 | CN1CCN(c2ccc(N3CCc4c([nH]c5cc(F)ccc45)C3)cc2)CC1 [Example 62]
– | < 10 | Cn1c2c(c3ccccc31)CCN(c1nc3ccc(N4CCOCC4)cc3o1)C2 [Example 67]

EC50 [1] [µM] | EC50 [2] [µM] | Compound
– | < 10 | c1ccc2c3c([nH]c2c1)CN(c1ccc(N2CCOC4(CCC4)C2)nc1)CC3 [Example 77]
– | < 10 | C[C@@H]1COCCN1c1ccc(N2CCc3c([nH]c4ccccc34)C2)cn1 [Example 78]
– | < 10 | Fc1cccc2[nH]c3c(c12)CCN(c1ccc2oc(N4CCOCC4)nc2c1)C3 [Example 89]
– | < 10 | Cn1c2c(c3c(F)cccc31)CCN(c1ccc3oc(N4CCOCC4)nc3c1)C2 [Example 90]
– | < 10 | Cn1c2c(c3cccc(F)c31)CCN(c1ccc3oc(N4CCOCC4)nc3c1)C2 [Example 91]
– | < 10 | Fc1cccc2c3c([nH]c12)CN(c1ccc2oc(N4CCOCC4)nc2c1)CC3 [Example 93]
– | 10 to 25 | CN1CCN(c2cnc(N3CCc4c(n(C)c5ccccc45)C3)cn2)CC1 [Example 94]
– | 25 to 50 | CN1CCN(c2ccc(N3CCc4c(n(C)c5ccccc45)C3)cn2)CC1 [Example 95]
– | < 10 | Cn1c2c(c3ccccc31)CCN(c1ccc(N3CCOCC3)nn1)C2 [Example 96]
– | 10 to 25 | CN1CCN(c2nc3cc(N4CCc5c(n(C)c6ccccc56)C4)ccc3o2)CC1 [Example 97]
– | 25 to 50 | CN1CCN(c2nc3cc(N4CCc5c([nH]c6ccccc56)C4)ccc3o2)CC1 [Example 98]
– | < 10 | c1ccc2c3c([nH]c2c1)CN(c1ccc2oc(N4CCOCC4)nc2c1)CC3 [Example 99]
– | < 10 | Cn1c2c(c3ccccc31)CCN(c1ccc3oc(N4CCOCC4)nc3c1)C2 [Example 100]
– | < 10 | Cn1c2c(c3ccccc31)CCN(c1nc3cc(N4CCOCC4)ccc3o1)C2 [Example 101]
– | < 10 | c1ccc2c3c([nH]c2c1)CN(c1nc2ccc(N4CCOCC4)cc2o1)CC3 [Example 102]
– | < 10 | Fc1ccc2c3c([nH]c2c1)CN(c1ccc2oc(N4CCOCC4)nc2c1)CC3 [Example 103]
– | < 10 | Cn1c2c(c3ccccc31)CCN(c1ccc(C#N)nc1)C2 [Example 112]
– | 10 to 25 | Fc1ccc2[nH]c3c(c2c1)CCN(c1ccc2ccc(N4CCOCC4)nc2c1)C3 [Example 121]
– | < 10 | Fc1ccc2[nH]c3c(c2c1)CCN(c1ccc2nc(N4CCOCC4)ccc2c1)C3 [Example 122]
